In patent US11684616B2, “Azalactam compounds as HPK1 inhibitors” (PFIZER INC., priority 2020, dated 2023) one finds Ki data, which are given here for 20 molecules.

human full-length autophosphorylated recombinant HPK1, sequence (Q92918 other isoform, or with tags, fused parts or gaps): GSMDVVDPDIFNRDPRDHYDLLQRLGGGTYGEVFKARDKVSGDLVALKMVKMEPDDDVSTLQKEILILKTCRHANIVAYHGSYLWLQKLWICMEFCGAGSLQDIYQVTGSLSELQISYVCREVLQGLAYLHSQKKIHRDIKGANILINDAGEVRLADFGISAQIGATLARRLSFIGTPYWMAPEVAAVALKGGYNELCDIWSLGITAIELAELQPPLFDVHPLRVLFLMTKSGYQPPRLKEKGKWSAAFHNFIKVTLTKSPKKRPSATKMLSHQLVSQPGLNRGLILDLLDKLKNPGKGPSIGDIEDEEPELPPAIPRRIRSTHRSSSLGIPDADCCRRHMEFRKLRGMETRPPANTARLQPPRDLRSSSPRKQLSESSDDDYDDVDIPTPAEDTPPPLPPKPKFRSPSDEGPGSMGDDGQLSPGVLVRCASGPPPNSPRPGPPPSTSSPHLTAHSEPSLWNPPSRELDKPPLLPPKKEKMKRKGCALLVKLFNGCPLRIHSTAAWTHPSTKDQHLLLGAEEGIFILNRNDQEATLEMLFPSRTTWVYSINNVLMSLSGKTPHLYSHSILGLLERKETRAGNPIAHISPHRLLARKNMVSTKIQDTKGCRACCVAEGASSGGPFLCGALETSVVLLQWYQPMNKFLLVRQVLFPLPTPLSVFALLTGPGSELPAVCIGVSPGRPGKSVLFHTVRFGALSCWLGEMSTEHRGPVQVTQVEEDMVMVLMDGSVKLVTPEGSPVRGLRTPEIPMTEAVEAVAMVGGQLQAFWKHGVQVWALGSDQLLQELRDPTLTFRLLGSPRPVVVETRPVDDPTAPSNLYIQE

The experiment deals with human full-length autophosphorylated recombinant HPK1 (Homo sapiens (Human), UniProt Q92918). Nature of the experiment: HPK1 biochemical enzyme assay (chelation-enhanced fluorescence, CHEF). As to conditions: 0.5 nM HPK1, 45 μM ATP, Morrison fit. The method, then:
HPK1 Biochemical Enzyme Assay
HPK1 enzyme inhibition was measured by using the fluorescence-based chelation-enhanced fluorescence (CHEF) method (1), and by using a proprietary fluorescent peptide substrate, in which a cysteine residue is alkylated with a sulfonamido-oxine-based derivative to afford an amino acid termed C-Sox (CSx). […] Initial reaction velocities were determined by following the peptide fluorescence (λex=360 nm, λem=500 nm) at 30° C. for 15 min in a Tecan M1000 plate reader (Tecan Group Ltd., Mannedorf, Zurich, Switzerland).
Production of Autophosphorylated Full-Length Recombinant HPK1
The DNA sequence encoding full-length human HPK1 (Genbank NM_001042600.2) was synthesized at GenScript and contained a limited number of silent base changes to eliminate certain restriction endonuclease enzyme recognition sites, and fused to a DNA sequence encoding a Tobacco Etch Virus (TEV)-cleavable N-terminal polyhistidine purification tag. A recombinant baculovirus was prepared by using the Bac-to-Bac method (InVitrogen) and was used to infect 9 L of Sf21 insect cells. All purification steps were carried out at 4° C. Cells containing recombinant HPK1 were lysed in 50 mM HEPES-NaOH, pH 7.5, 250 mM NaCl, 1 mM tris(2-carboxyethyl)phosphine (TCEP), 10 μM leupeptin (Sigma), 10 μM E-64 (Sigma), and one ‘EDTA-free’ protease inhibitor tablet (Roche) per 75 mL buffer, centrifuged at 15,000×g for 1 h and the supernatant passed over 5 mL of ProBond IMAC resin (InVitrogen). After washing, HPK1 was eluted with 12.5 mL of 50 mM HEPES-NaOH, pH 7.5, 400 mM NaCl, 250 mM imidazole-HCl pH 7.5, 1 mM TCEP, 2 μM leupeptin, and 2 μM E-64. The eluted HPK1 was dialyzed overnight against 0.8 L of 50 mM HEPES-NaOH, pH 7.5, 400 mM NaCl, 20 mM imidazole-HCl pH 7.5, 1 mM TCEP, 2 μM leupeptin, 2 μM E-64, 2 mM ATP-NaOH pH 7.3, 5 mM MgCl2 and 1 mg TEV (this step simultaneously allows for reduction of the imidazole concentration in preparation for the subsequent reverse IMAC chromatography step, removal of the polyhistidine purification tag by TEV protease, and autophosphorylation of HPK1 in the presence of MgATP). The de-tagged and autophosphorylated HPK1 was adjusted to 40 mM imidazole-HCl, pH 7.5, and passed through a 10 mL column of ProBond resin similarly equilibrated. […] The peak fractions containing HPK1 were pooled and concentrated to approximately 2.5 mL by using a centrifugal concentrator (Millipore). The concentrated HPK1 was adjusted to 20% (v/v) glycerol by the addition of 50% (v/v) glycerol, resulting in a final formulation of 25 mM HEPES-NaOH pH 7.5, 250 mM NaCl, 0.25 mM TCEP and 20% (v/v) glycerol. […] Aliquots of the enzyme were flash frozen in liquid nitrogen and stored at −80° C. The final product contains a glycine-serine extension at the N-terminus of the full-length protein, as a result of the cloning strategy.
On to `CC[C@@H]1CCc2nnc(-c3cccc(N4Cc5c(cc(N6CCC[C@H]6C)nc5[C@@H](C)N)C4=O)n3)n21` [Example 7, 4-[(1R)-1-aminoethyl]-2-{6-[(5R)-5-ethyl-6,7-dihydro-5H-pyrrolo[2,1-c][1,2,4]triazol-3-yl]pyridin-2-yl}-6-[(2R)-2-methylpyrroli-din-1-yl]-2,3-dihydro-1H-pyrrolo[3,4-c]pyridin-1-one], for which the Ki (in general, the equilibrium dissociation constant of an inhibitor or competing ligand from its target) is 2.8 nM.
As for `CC[C@H](N)c1nc(N(C)C)cc2c1CN(c1cccc(-c3nncn3CC)n1)C2=O` (stereo in doubt) [Example 147, 4-[(1ξ)-1-aminopropyl]-6-(dimethyl-amino)-2-[6-(4-ethyl-4H-1,2,4-triazol-3-yl)pyridin-2-yl]-2,3-dihydro-1H-pyrrolo[3,4-c]pyridin-1-one], the figure is 1 nM.
With `CC[C@@H]1CCc2nnc(-c3cccc(N4Cc5c(cc(N(C)C(C)C)nc5[C@@H](C)N)C4=O)n3)n21` [Example 12, 4-[(1R)-1-aminoethyl]-2-{6-[(5R)-5-ethyl-6,7-dihydro-5H-pyrrolo[2,1-c][1,2,4]triazol-3-yl]pyridin-2-yl}-6-[methyl(propan-2-yl)amino]-2,3-dihydro-1H-pyrrolo[3,4-c]pyridin-1-one] the figure was 1.98 nM; with `CC[C@@H]1CCc2nnc(-c3cccc(N4Cc5c(cc(N(C)C(C)C)nc5CNC)C4=O)n3)n21` [Example 204, 2-{6-[(5R)-5-ethyl-6,7-dihydro-5H-pyrrolo[2,1-c] [1,2,4]triazol-3-yl]pyridin-2-yl}-4-[(methyl-amino)methyl]-6-[methyl (propan-2-yl)amino]-2,3-dihydro-1H-pyrrolo[3,4-c] pyridin-1-one], 1.29 nM; with `CCn1cnnc1-c1cccc(N2Cc3c(cc(N(C)C)nc3[C@@H](C)N)C2=O)n1` (stereo in doubt) [Example 153, 4-[(1ξ)-1-aminoethyl]-6-(dimethyl-amino)-2-[6-(4-ethyl-4H-1,2,4-triazol-3-yl)pyridin-2-yl]-2,3-dihydro-1H-pyrrolo[3,4-c]pyridin-1-one], 1.25 nM.
As for `CC[C@@H]1CCc2nnc(-c3cccc(N4Cc5c(cc(N6CCC[C@H]6C)nc5[C@H](C)N)C4=O)n3)n21` [Example 8, 4-[(1S)-1-aminoethyl]-2-{6-[(5R)-5-ethyl-6,7-dihydro-5H-pyrrolo[2,1-c][1,2,4]triazol-3-yl]pyridin-2-yl}-6-[(2R)-2-methylpyrroli-din-1-yl]-2,3-dihydro-1H-pyrrolo[3,4-c]pyridin-1-one], the figure is 5.6 nM; as for `CC[C@@H](N)c1nc(C2(C)CC2)cc2c1CN(c1cccc(-c3nncn3C3CCC3)n1)C2=O` (stereo in doubt) [Example 105, 4-[(1ξ)-1-aminopropyl]-2-[6-(4-cyclobutyl-4H-1,2,4-triazol-3-yl)pyridin-2-yl]-6-(1-methylcyclo-propyl)-2,3-dihydro-1H-pyrrolo[3,4-c]pyridin-1-one], 2.01 nM.
Regarding `CNCc1nc(N(C)C)cc2c1CN(c1cccc(-c3nnc4n3[C@H](C)CC4)n1)C2=O` [Example 209, 6-(dimethyl-amino)-4-[(methylamino)methyl]-2-{6-[(5R)-5-methyl-6,7-dihydro-5H-pyrrolo[2,1-c] [1,2,4]triazol-3-yl]pyridin-2-yl}-2,3-dihydro-1H-pyrrolo[3,4-c] pyridin-1-one], the Ki was found to be 2.11 nM.
As to `CCC(CC)n1cnnc1-c1cccc(N2Cc3c(cc(C4(C)CC4)nc3[C@H](C)N)C2=O)n1` (stereo in doubt) [Example 125, 4-[(1ξ)-1-aminoethyl]-6-(1-methyl-cyclopropyl)-2-{6-[4-(pentan-3-yl)-4H-1,2,4-triazol-3-yl]pyridin-2-yl}-2,3-dihydro-1H-pyrrolo[3,4-c]pyridin-1-one], the inhibition constant (Ki) came out at 1.42 nM.
With `CC[C@H]1CCc2nnc(-c3cccc(N4Cc5c(cc(N6CCC[C@H]6C)nc5[C@@H](N)CC)C4=O)n3)n21` [Example 15, 4-[(1S)-1-aminopropyl]-2-{6-[(5ξ)-5-ethyl-6,7-dihydro-5H-pyrrolo[2,1-c][1,2,4]triazol-3-yl]pyridin-2-yl}-6-[(2R)-2-methylpyrroli-din-1-yl]-2,3-dihydro-1H-pyrrolo[3,4-c]pyridin-1-one] the figure was 8.47 nM; with `CC[C@H](N)c1nc(N2CCC[C@H]2C)cc2c1CN(c1cccc(-c3nncn3CC)n1)C2=O` [Example 141, 4-[(1S)-1-aminopropyl]-2-[6-(4-ethyl-4H-1,2,4-triazol-3-yl)pyridin-2-yl]-6-[(2R)-2-methylpyrroli-din-1-yl]-2,3-dihydro-1H-pyrrolo[3,4-c]pyridin-1-one], 0.44 nM; with `C[C@@H]1CCCN1c1cc2c(c([C@@H](C)N)n1)CN(c1cccc(-c3nnc4n3[C@@H](C)CC4)n1)C2=O` [Example 24, 4-[(1ξ)-1-aminoethyl]-2-{6-[(5ξ)-5-methyl-6,7-dihydro-5H-pyrrolo[2,1-c][1,2,4]triazol-3-yl]pyridin-2-yl}-6-[(2R)-2-methylpyrroli-din-1-yl]-2,3-dihydro-1H-pyrrolo[3,4-c]pyridin-1-one], 1.76 nM.
As for `C[C@H](N)c1nc(N2CCC[C@H]2C)cc2c1CN(c1cccc(-c3nnc4n3[C@@H](CF)CC4)n1)C2=O` [Example 19, 4-[(1ξ)-1-aminoethyl]-2-{6-[(5R)-5-(fluoromethyl)-6,7-dihydro-5H-pyrrolo[2,1-c][1,2,4]triazol-3-yl]pyridin-2-yl}-6-[(2R)-2-methylpyrroli-din-1-yl]-2,3-dihydro-1H-pyrrolo[3,4-c]pyridin-1-one], the figure is 0.15 nM; as for `CC[C@@H]1CCc2nnc(-c3cccc(N4Cc5c(cc(N(C)C)nc5CNC)C4=O)n3)n21` [Example 207, 6-(dimethyl-amino)-2-{6-[(5R)-5-ethyl-6,7-dihydro-5H-pyrrolo[2,1-c] [1,2,4]triazol-3-yl]pyridin-2-yl}-4-[(methyl-amino)methyl]-2,3-dihydro-1H-pyrrolo[3,4-c] pyridin-1-one], 2.68 nM.
With `CCCn1cnnc1-c1cccc(N2Cc3c(cc(N(C)C)nc3[C@@H](N)CC)C2=O)n1` [Example 143, 4-[(1ξ)-1-aminopropyl]-6-(dimethyl-amino)-2-[6-(4-propyl-4I-1,2,4-triazol-3-yl)pyridin-2-yl]-2,3-dihydro-1I-pyrrolo[3,4-c]pyridin-1-one] the figure was 3.73 nM.
With `C[C@H](N)c1nc(C2(C)CC2)cc2c1CN(c1cccc(-c3nncn3C3CCC3)n1)C2=O` (stereo in doubt) [Example 104, 4-[(1ξ)-1-aminoethyl]-2-[6-(4-cyclobutyl-4H-1,2,4-triazol-3-yl)pyridin-2-yl]-6-(1-methylcyclo-propyl)-2,3-dihydro-1H-pyrrolo[3,4-c]pyridin-1-one], the inhibition constant Ki was 2.36 nM.
`CCN(C)c1cc2c(c([C@@H](C)N)n1)CN(c1cccc(-c3nnc(C)n3CC)n1)C2=O` (stereo in doubt) [Example 127, 4-[(1ξ)-1-aminoethyl]-6-[ethyl(methyl)amino]-2-[6-(4-ethyl-5-methyl-4H-1,2,4-triazol-3-yl)pyridin-2-yl]-2,3-dihydro-1H-pyrrolo[3,4-c]pyridin-1-one]: the Ki is 1.41 nM.
With `CCCn1cnnc1-c1cccc(N2Cc3c(cc(N(C)C)nc3[C@H](N)CC)C2=O)n1` (stereo in doubt) [Example 142, 4-[(1ξ)-1-aminopropyl]-6-(dimethyl-amino)-2-[6-(4-propyl-4H-1,2,4-triazol-3-yl)pyridin-2-yl]-2,3-dihydro-1H-pyrrolo[3,4-c]pyridin-1-one], the Ki worked out at 1.54 nM.
With `CCC(CC)n1cnnc1-c1cccc(N2Cc3c(cc(C4(C)CC4)nc3[C@@H](C)N)C2=O)n1` (stereo in doubt) [Example 126, 4-[(1ξ)-1-aminoethyl]-6-(1-methyl-cyclopropyl)-2-{6-[4-(pentan-3-yl)-4H-1,2,4-triazol-3-yl]pyridin-2-yl}-2,3-dihydro-1H-pyrrolo[3,4-c]pyridin-1-one] the figure was 1.78 nM; with `CCCn1cnnc1-c1cccc(N2Cc3c(cc(N4CCC[C@H]4C)nc3[C@@H](N)CC)C2=O)n1` [Example 145, 4-[(1S)-1-aminopropyl]-6-[(2R)-2-methylpyrroli-din-1-yl]-2-[6-(4-propyl-4H-1,2,4-triazol-3-yl)pyridin-2-yl]-2,3-dihydro-1H-pyrrolo[3,4-c]pyridin-1-one], 0.46 nM.
